Assay results: US3969523A, “Antiphlogistic pharmaceutical compositions containing a 1-(nicotinoyl or isonicotinoyl)-3-biphenylyl-alkanone-(2)” (Boehringer Ingelheim GmbH, priority 1973, dated 1976)

Experiments:
[1] = test system: kaolin-induced edema of the hind paw of the rat; assay: Antiphlogistic activity: antiexsudative effect on kaolin-induced edema of the hind paw of the rat, oral; type: in vivo; details: p.o., dose leading to 35% reduction of swelling, graphically determined
Procedure: (§1) The antiphlogistic activity was tested to determine the antiexsudative effect on the kaolin-induced edema (see Hillebrecht in Arzneimittelforschung 4, 607 - 614 (1954) and the carrageenin-induced edema (see Winter in Proc. Soc. Exper. Biol. Med. 111, 544 (1962)) of the hind paw of the rat after oral administration of at least 3 doses to at least 10 animals per dose. The dose leading to a 35% reduction of the swelling (ED35) was graphically determined.

[2] = test system: carrageenin-induced edema of the hind paw of the rat; assay: Antiphlogistic activity: antiexsudative effect on carrageenin-induced edema of the hind paw of the rat, oral; type: in vivo; details: p.o., dose leading to 35% reduction of swelling, graphically determined
Procedure: as §1

in vivo = details: rat, po
Procedure: The ulcerogenic activity in the rat was determined after oral administration of the compound for 3 times after 24 hours each time. The animals were killed 4 hours after that, and the number of the animals having an ulcer was recorded.

[3] = Peroral acute toxicity in rats; details: in vivo, po; rat; 50% died within 14 days; Litchfield and Wilcoxon
Procedure: The peroral acute toxicity of the compounds was determined on groups of 10 rats each.

CC(C(=O)COC(=O)c1ccncc1)c1ccc(-c2ccccc2F)cc1 (stereo not shown) [A, 1-isonicotinoyloxy-3-(2'-fluoro-4"-biphenylyl)-butanone-(2)]
ED35 [1]: 14 mg/kg | ED35 [2]: 22.5 mg/kg | TD50 (in vivo): 71 mg/kg | LD50 at 336 h [3]: 1170 mg/kg
